Consider 16 compounds from ChEMBL document CHEMBL5143628, “Enteroviral replication inhibition by N-Alkyl triazolopyrimidinone derivatives through a non-capsid binding mode” (Bioorg Med Chem Lett, 2022).

Series [1] deals with rhinovirus B14. Kind of series: Antiviral activity against Human rhinovirus B14 infected in human H1-HeLa cells assessed as reduction in virus induced cytopathic effect incubated for 3 days by MTT assay. In kind it is functional, organism-based.
For series [2], the system named is rhinovirus A21. The experiment in a line: Antiviral activity against Human rhinovirus A21 infected in human H1-HeLa cells assessed as reduction in virus induced cytopathic effect incubated for 3 days by MTT assay. In kind it is functional, organism-based.
A short description of series [3]: Antiviral activity against Human rhinovirus A71 infected in human H1-HeLa cells assessed as reduction in virus induced cytopathic effect incubated for 3 days by MTT assay. It is filed as functional, cell-based.
Series [4] is described as follows: (§1) Cytotoxicity against human H1-HeLa cells assessed as reduction in cell viability by MTT assay. It is filed as toxicity, cell-based. The conditions noted are these: H1-HeLa cells.
A short description of series [5]: Selectivity index, ratio of CC50 for cytotoxicity against human H1-HeLa cells to EC50 for antiviral activity against Human rhinovirus B14 infected in human H1-HeLa cells. In kind it is toxicity, cell-based. To be noted: for selectivity ratio: H1-HeLa cells, read-out: Ratio CC50/EC50.
A short description of series [6]: Selectivity index, ratio of CC50 for cytotoxicity against human H1-HeLa cells to EC50 for antiviral activity against Human rhinovirus A21 infected in human H1-HeLa cells. It is filed as toxicity, cell-based. To be noted: for selectivity ratio: H1-HeLa cells, read-out: Ratio CC50/EC50.
Series [7] in a line: Selectivity index, ratio of CC50 for cytotoxicity against human H1-HeLa cells to EC50 for antiviral activity against Human rhinovirus A71 infected in human H1-HeLa cells. To be noted: for selectivity ratio: H1-HeLa cells, read-out: Ratio CC50/EC50. It is filed as toxicity, cell-based.
Series [8] relates to Coxsackievirus B1. The experiment in a line: Antiviral activity against Human coxsackievirus B1 infected in human H1-HeLa cells assessed as reduction in virus induced cytopathic effect incubated for 2 days by MTT assay. In kind it is functional, organism-based. The conditions noted are these: Enterovirus B, 48 h.
The test system of series [9] is Poliovirus 3. The experiment in a line: Antiviral activity against Human poliovirus 3 infected in human H1-HeLa cells assessed as reduction in virus induced cytopathic effect incubated for 2 days by MTT assay. It is filed as functional, organism-based. The conditions noted are these: Enterovirus C, 48 h.
Series [10] has as its system rhinovirus B14. The experiment in a line: Antiviral activity against Human rhinovirus B14 infected in human H1-HeLa cells assessed as reduction in viral titre at 0.1 uM pretreated for 1 hr followed by viral infection and measured after 6 hrs by time-of-addition assay. In kind it is functional, organism-based.
Series [11] has as its system rhinovirus B14. Kind of series: Antiviral activity against Human rhinovirus B14 infected in human H1-HeLa cells assessed as reduction in viral replication by measuring viral titre measured 3 days post infection by crystal violet staining based plaque reduction assay. In kind it is functional, organism-based. The conditions noted are these: dose 1.1-30 µM, time 3.0 day, DDE = dose-dependent effect.

Series [12] concerns rhinovirus B14. The experiment in a line: Antiviral activity against Human rhinovirus B14 infected in human H1-HeLa cells assessed as reduction in viral titre at early stage at 10 uM pretreated for 1 hr followed by viral infection and measured after 9 hrs by time-of-addition assay. It is filed as functional, organism-based.
The subject of series [13] is H1-HeLa. The description is as §1. In kind it is toxicity, cell-based. To be noted: h1-hela.
Series [14] has as its target CYP2C19 (Homo sapiens, UniProt P33261). Kind of series: Inhibition of human CYP2C19 at 10 uM incubated for 20 mins in presence of NADPH regenerating system by luminescence assay relative to control. It is filed as ADME.
Series [15] relates to rhinovirus A1B. Kind of series: Antiviral activity against Rhinovirus A1B infected in human H1-HeLa cells assessed as reduction in virus induced cytopathic effect incubated for 3 days by MTT assay. In kind it is functional, organism-based. The conditions noted are these: Rhinovirus A, 72 h.
In series [16] the test system is rhinovirus A2. Kind of series: Antiviral activity against Human rhinovirus 2 infected in human H1-HeLa cells assessed as reduction in virus induced cytopathic effect incubated for 3 days by MTT assay. To be noted: Rhinovirus A, 72 h. It is filed as functional, organism-based.
Series [17] deals with rhinovirus A16. Kind of series: Antiviral activity against Human rhinovirus 16 infected in human H1-HeLa cells assessed as reduction in virus induced cytopathic effect incubated for 3 days by MTT assay. It is filed as functional, organism-based. To be noted: Rhinovirus A, 72 h.
The test system of series [18] is Rhinovirus A. Kind of series: Antiviral activity against Rhinovirus A33 infected in human H1-HeLa cells assessed as reduction in virus induced cytopathic effect incubated for 3 days by MTT assay. It is filed as functional, cell-based. To be noted: Rhinovirus A, 33, H1-HeLa, 72 h.
The test system of series [19] is rhinovirus B86. Kind of series: Antiviral activity against Human rhinovirus 86 infected in human H1-HeLa cells assessed as reduction in virus induced cytopathic effect incubated for 3 days by MTT assay. It is filed as functional, organism-based. The conditions noted are these: Rhinovirus B, 72 h.
Series [20] has as its system Rhinovirus B. The experiment in a line: Antiviral activity against Rhinovirus B91 infected in human H1-HeLa cells assessed as reduction in virus induced cytopathic effect incubated for 3 days by MTT assay. It is filed as functional, organism-based. The conditions noted are these: Rhinovirus B, 91, H1-HeLa, 72 h.
For series [21], the system named is rhinovirus B14. The experiment in a line: Antiviral activity against Human rhinovirus B14 infected in human H1-HeLa cells assessed as reduction in viral replication by measuring viral production measured 3 days post infection by crystal violet staining based plaque reduction assay. It is filed as functional, organism-based. The conditions noted are these: dose 0.4-30 µM, time 3.0 day, DDE = dose-dependent effect.

In series [22] the test system is rhinovirus B14. Kind of series: Antiviral activity against Human rhinovirus B14 infected in human H1-HeLa cells assessed as reduction in viral titre at 1 uM pretreated for 1 hr followed by viral infection and measured immediately by time-of-addition assay. It is filed as functional, organism-based.
Series [23] addresses CYP2C9 (Homo sapiens, UniProt P11712). The experiment in a line: Inhibition of human CYP2C9 at 10 uM incubated for 20 mins in presence of NADPH regenerating system by luminescence assay relative to control. In kind it is ADME.

Calls of active or inactive are those of the source. The calls are words filed in the database; no cut-off is given here.

CYP2C9, sequence (P11712 whole entry): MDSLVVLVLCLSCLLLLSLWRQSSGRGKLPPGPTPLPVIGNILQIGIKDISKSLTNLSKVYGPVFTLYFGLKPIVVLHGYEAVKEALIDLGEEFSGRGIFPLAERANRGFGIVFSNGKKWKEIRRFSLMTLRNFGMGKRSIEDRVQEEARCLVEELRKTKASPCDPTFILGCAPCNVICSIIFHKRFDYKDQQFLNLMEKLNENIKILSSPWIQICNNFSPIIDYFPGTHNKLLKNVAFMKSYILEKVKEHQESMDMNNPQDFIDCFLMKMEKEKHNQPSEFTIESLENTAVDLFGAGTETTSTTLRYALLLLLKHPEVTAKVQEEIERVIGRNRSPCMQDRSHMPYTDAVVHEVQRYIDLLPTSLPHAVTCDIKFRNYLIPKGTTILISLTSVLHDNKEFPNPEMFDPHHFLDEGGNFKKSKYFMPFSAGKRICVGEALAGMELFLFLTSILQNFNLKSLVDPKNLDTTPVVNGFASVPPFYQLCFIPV
CYP2C19, sequence (P33261 whole entry): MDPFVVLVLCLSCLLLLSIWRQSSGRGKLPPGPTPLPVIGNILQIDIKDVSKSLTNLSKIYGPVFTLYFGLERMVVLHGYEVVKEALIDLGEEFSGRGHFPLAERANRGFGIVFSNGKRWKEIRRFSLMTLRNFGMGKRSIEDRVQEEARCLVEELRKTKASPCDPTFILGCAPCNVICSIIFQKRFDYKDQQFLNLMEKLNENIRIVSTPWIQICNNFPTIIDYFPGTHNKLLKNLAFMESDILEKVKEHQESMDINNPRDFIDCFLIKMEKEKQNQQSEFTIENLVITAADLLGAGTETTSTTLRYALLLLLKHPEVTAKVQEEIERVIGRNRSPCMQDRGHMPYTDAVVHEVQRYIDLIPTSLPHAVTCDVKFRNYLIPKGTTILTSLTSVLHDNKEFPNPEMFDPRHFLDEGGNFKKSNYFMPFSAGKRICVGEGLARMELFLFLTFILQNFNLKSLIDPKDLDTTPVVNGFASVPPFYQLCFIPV

Consider `CC(C)(C)C1CCc2c(sc3c2c(=O)n(-c2ccccc2)c2nncn32)C1` (stereo unspecified), for which the EC50 worked out at 5 µM in series [1] (Rhinovirus B, H1-HeLa, 72 h); 5.1 µM in [2] (Rhinovirus A, H1-HeLa, 72 h); 2.3 µM in series [3] (Rhinovirus A, H1-HeLa, 72 h). The half-maximal cytotoxic concentration (CC50) in series [4] turned out to be 18.7 µM. Also, the selectivity ratio was found to be 3.7 in series [5], 3.6 in series [6] and 8.1 in series [7].

`CCCCn1c(=O)c2c3c(sc2n2cnnc12)CC(C(C)(C)C)CC3` (stereo unspecified): the EC50 in [1] (Rhinovirus B, H1-HeLa, 72 h) was 2.2 µM; in series [2] (Rhinovirus A, H1-HeLa, 72 h), greater than 100 µM; in series [3] (Rhinovirus A, H1-HeLa, 72 h), 2 µM; in [8], greater than 22.9 µM; in [9] it was 2.55 µM. In [4], the CC50 is greater than 100 µM. The selectivity ratio in series [5] was greater than 45.4; in series [7], greater than 50.

In the case of `Cn1c(=O)c2c3c(sc2n2cnnc12)CC(C(C)(C)C)CC3` (stereo unspecified), the EC50 was greater than 100 µM in [1] (Rhinovirus B, H1-HeLa, 72 h); greater than 100 µM in [2] (Rhinovirus A, H1-HeLa, 72 h); 23 µM in [3] (Rhinovirus A, H1-HeLa, 72 h); greater than 100 µM in series [8]; greater than 100 µM in series [9]. Besides, the CC50 in [4] is greater than 100 µM. In addition, the selectivity ratio in [7] is greater than 4.3.

As for `CCCCCCn1c(=O)c2c3c(sc2n2cnnc12)CC(C(C)(C)C)CC3` (stereo unspecified), the EC50 in series [1] (Rhinovirus B, H1-HeLa, 72 h) was greater than 100 µM; in series [2] (Rhinovirus A, H1-HeLa, 72 h) it was greater than 100 µM; in series [3] (Rhinovirus A, H1-HeLa, 72 h), greater than 100 µM. In addition, the CC50 in series [4] was greater than 100 µM.

Turning to `CCn1c(=O)c2c3c(sc2n2cnnc12)CC(C(C)(C)C)CC3` (stereo unspecified), the EC50 in series [1] (Rhinovirus B, H1-HeLa, 72 h) is 14.1 µM; in [2] (Rhinovirus A, H1-HeLa, 72 h), 14.7 µM; in series [3] (Rhinovirus A, H1-HeLa, 72 h), 3.7 µM; in [8] it was greater than 100 µM; in [9], 3.8 µM. The CC50 in series [4] was greater than 100 µM. Further, the selectivity ratio in series [5] is greater than 7; in series [6] it was greater than 6.8; in series [7], greater than 27.

In the case of `CC(C)CCn1c(=O)c2c3c(sc2n2cnnc12)CC(C(C)(C)C)CC3` (stereo unspecified), the EC50 in [1] (Rhinovirus B, H1-HeLa, 72 h) is greater than 100 µM; in [2] (Rhinovirus A, H1-HeLa, 72 h), greater than 100 µM; in [3] (Rhinovirus A, H1-HeLa, 72 h), greater than 100 µM. Also, the CC50 in [4] is greater than 100 µM.

With `CC(C)(C)C1CCc2c(sc3c2c(=O)n(C2CC2)c2nncn32)C1` (stereo unspecified), the EC50 is 15 µM in series [1] (Rhinovirus B, H1-HeLa, 72 h); 7.7 µM in [2] (Rhinovirus A, H1-HeLa, 72 h); 4.3 µM in [3] (Rhinovirus A, H1-HeLa, 72 h). In series [4], the CC50 turned out to be 35.5 µM. Besides, the values for the selectivity ratio in [5], in series [6] and in series [7] were 2.3, 4.6 and 8.2, respectively.

With `CC(C)Cn1c(=O)c2c3c(sc2n2cnnc12)CC(C(C)(C)C)CC3` (stereo unspecified), the EC50 in [1] (Rhinovirus B, H1-HeLa, 72 h) amounted to 4.2 µM; in series [2] (Rhinovirus A, H1-HeLa, 72 h) it was 5.1 µM; in series [3] (Rhinovirus A, H1-HeLa, 72 h) it was 2.2 µM. In series [4], the CC50 is greater than 100 µM. Further, the selectivity ratio in series [5] is greater than 23.8; in series [6], greater than 19.6; in [7], greater than 45.4.

Consider `CC(C)(C)C1CCc2c(sc3c2c(=O)n(C2CCCC2)c2nncn32)C1` (stereo unspecified), for which the EC50 in series [1] (Rhinovirus B, H1-HeLa, 72 h) is greater than 100 µM; in [2] (Rhinovirus A, H1-HeLa, 72 h), greater than 100 µM; in series [3] (Rhinovirus A, H1-HeLa, 72 h), 12.1 µM. The CC50 in series [4] was greater than 100 µM. For the same compound, the selectivity ratio in series [7] is greater than 8.2.

Regarding `CCOC(=O)/C=C/[C@H](CC1CCNC1=O)NC(=O)[C@@H](CC(=O)[C@@H](NC(=O)c1cc(C)on1)C(C)C)Cc1ccc(F)cc1` (stereo partly specified), the outcome in series [10] was Active.

As for `CCCn1c(=O)c2c3c(sc2n2cnnc12)CC(C(C)(C)C)CC3` (stereo in doubt), the Activity entry in series [11] was “Dde”. Further, in [12], the result was Active.

In the case of `CCCn1c(=O)c2c3c(sc2n2cnnc12)CC(C(C)(C)C)CC3` (stereo in doubt; 2c-1), the EC50 in series [1] (h1-hela) came out at 3.7 µM; in series [2] (h1-hela), 3.5 µM; in series [3] (h1-hela) it was 1.7 µM. The CC50 in [13] was greater than 100 µM. The entries for the “Ratio CC50/EC50” value in series [5], in series [6] and in [7] were greater than 27, greater than 28.5 and greater than 58.8, respectively.

On to `CCCn1c(=O)c2c3c(sc2n2cnnc12)CC(C(C)(C)C)CC3` (stereo in doubt; 2c-2), for which the concentration for a half-maximal effect (EC50) in series [1] (h1-hela) was 7.8 µM; in series [2] (h1-hela) it was 7.7 µM; in [3] (h1-hela), 1.9 µM. In addition, the “Ratio CC50/EC50” value in [5] is greater than 12.8; in series [6], greater than 12.9; in [7] it was greater than 52.6.

In the case of `CN(C)CCC=C1c2ccccc2CCc2ccccc21` [AMITRIPTYLINE], the inhibition at 20 min, 10 µM in series [14] came out at 90.2%.

As for `Cc1cc(CCCOc2c(C)cc(-c3noc(C(F)(F)F)n3)cc2C)on1` [PLECONARIL], the EC50 in [1] (Rhinovirus B, H1-HeLa, 72 h) was found to be 0.2 µM; in series [2] (Rhinovirus A, H1-HeLa, 72 h), 0.17 µM; in series [3] (Rhinovirus A, H1-HeLa, 72 h), 0.017 µM; in series [15], 0.24 µM; in [16], 0.08 µM; in series [17], 0.51 µM. In addition, the 50% effective concentration (EC50) in series [18] came out at 0.45 µM; in series [19], 0.29 µM; in [20] it was 1.4 µM. In addition, the CC50 in [4] came to 20.8 µM. Also, the selectivity ratio in series [5] was 145; in series [6], 161; in [7], 1700. For the same compound, the Activity result in series [21] was “Dde”. The result in series [22] was Active.

Consider `Nc1ccc(S(=O)(=O)Nc2ccnn2-c2ccccc2)cc1` [SULFAPHENAZOLE], for which the inhibition at 20 min, 10 µM in series [23] was 85.8%.
